From ChEMBL document CHEMBL4414631 (J Med Chem, 2019)
Values after ≈ are worked out from the molar mass of the structure shown.

Biological target: Phosphatidylinositol 4,5-bisphosphate 3-kinase catalytic subunit beta isoform (Homo sapiens, UniProt P42338)
Experiment: Inhibition of PI3Kbeta (unknown origin) using biotin-PIP3 as substrate preincubated for 15 mins followed by substrate addition and measured after 60 mins by fluorescence polarization assay
Conditions: not given

Sequence of Phosphatidylinositol 4,5-bisphosphate 3-kinase catalytic subunit beta isoform (P42338 whole entry, canonical isoform): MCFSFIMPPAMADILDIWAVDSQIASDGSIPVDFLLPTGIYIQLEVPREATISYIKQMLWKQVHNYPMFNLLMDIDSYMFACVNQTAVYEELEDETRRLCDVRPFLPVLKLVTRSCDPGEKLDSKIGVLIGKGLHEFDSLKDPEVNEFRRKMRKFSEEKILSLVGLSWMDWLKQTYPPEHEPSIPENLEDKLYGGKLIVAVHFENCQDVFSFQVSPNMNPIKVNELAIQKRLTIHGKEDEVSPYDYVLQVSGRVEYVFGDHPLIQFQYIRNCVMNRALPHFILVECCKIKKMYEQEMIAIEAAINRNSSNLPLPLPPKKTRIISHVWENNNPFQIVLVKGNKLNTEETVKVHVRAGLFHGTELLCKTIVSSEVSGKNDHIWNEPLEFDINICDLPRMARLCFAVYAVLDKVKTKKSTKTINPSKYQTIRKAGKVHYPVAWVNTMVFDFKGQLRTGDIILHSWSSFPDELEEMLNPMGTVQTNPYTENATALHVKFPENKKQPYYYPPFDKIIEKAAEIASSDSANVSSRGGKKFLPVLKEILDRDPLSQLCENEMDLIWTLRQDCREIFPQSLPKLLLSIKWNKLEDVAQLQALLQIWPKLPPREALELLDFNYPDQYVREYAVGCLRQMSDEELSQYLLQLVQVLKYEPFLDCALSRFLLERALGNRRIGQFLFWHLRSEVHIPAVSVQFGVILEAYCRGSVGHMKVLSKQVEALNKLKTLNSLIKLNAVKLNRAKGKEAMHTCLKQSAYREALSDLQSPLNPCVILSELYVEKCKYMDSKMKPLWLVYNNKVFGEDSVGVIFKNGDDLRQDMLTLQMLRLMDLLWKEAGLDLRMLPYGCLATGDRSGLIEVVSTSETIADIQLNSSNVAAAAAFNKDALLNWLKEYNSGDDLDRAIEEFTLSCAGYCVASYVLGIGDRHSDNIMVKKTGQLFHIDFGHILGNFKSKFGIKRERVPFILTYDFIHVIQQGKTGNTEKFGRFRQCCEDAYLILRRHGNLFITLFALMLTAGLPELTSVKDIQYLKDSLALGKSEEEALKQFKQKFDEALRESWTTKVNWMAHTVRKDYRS

Compound | IC50
COCC(=O)N(C)C1CCCN(Cc2cc3nc(-c4cccc5[nH]ncc45)nc(N4CCOCC4)c3s2)C1 (racemic) | 6310 nM
CS(=O)(=O)NC1CCCN(Cc2cc3nc(-c4cnc(N)nc4)nc(N4CCOCC4)c3s2)C1 (racemic) | 316 nM
CC(=O)N(C)C1CCCN(Cc2cc3nc(-c4cccc5[nH]ccc45)nc(N4CCOCC4)c3s2)C1 (racemic) | 2510 nM
CN(C1CCN(Cc2cc3nc(-c4cccc5[nH]ccc45)nc(N4CCOCC4)c3s2)C1)S(C)(=O)=O (racemic) | 501 nM
CN(C1CCN(Cc2cc3nc(-c4cnc(N)nc4)nc(N4CCOCC4)c3s2)C1)S(C)(=O)=O (racemic) | 251 nM
CN(C1CCN(Cc2cc3nc(-c4cccc5[nH]ncc45)nc(N4CCOCC4)c3s2)C1)S(C)(=O)=O (racemic) | 1580 nM
CC(=O)N(C)C1CCCN(Cc2cc3nc(-c4cccc5[nH]ncc45)nc(N4CCOCC4)c3s2)C1 (racemic) | 2000 nM
CNC(=O)N(C)C1CCCN(Cc2cc3nc(-c4cnc(N)nc4)nc(N4CCOCC4)c3s2)C1 (racemic) | 2000 nM
CC(=O)N(C)C1CCN(Cc2cc3nc(-c4cccc5[nH]ncc45)nc(N4CCOCC4)c3s2)C1 (racemic) | 1000 nM
CC(=O)N(C)C1CCN(Cc2cc3nc(-c4cccc5[nH]ccc45)nc(N4CCOCC4)c3s2)C1 (racemic) | 501 nM
CN(C1CCCN(Cc2cc3nc(-c4cccc5[nH]ncc45)nc(N4CCOCC4)c3s2)C1)S(C)(=O)=O (racemic) | 2510 nM
COCC(=O)N(C)C1CCN(Cc2cc3nc(-c4cccc5[nH]ccc45)nc(N4CCOCC4)c3s2)C1 (racemic) | 2510 nM
CN(C1CCCN(Cc2cc3nc(-c4cccc5[nH]ccc45)nc(N4CCOCC4)c3s2)C1)S(C)(=O)=O (racemic) | 1580 nM

Biological target: Albumin (Homo sapiens, UniProt P02768)
Experiment: Binding affinity to human serum albumin by HPLC analysis
Assay type: ADME
Conditions: isolated protein

Sequence of Albumin (P02768 whole entry): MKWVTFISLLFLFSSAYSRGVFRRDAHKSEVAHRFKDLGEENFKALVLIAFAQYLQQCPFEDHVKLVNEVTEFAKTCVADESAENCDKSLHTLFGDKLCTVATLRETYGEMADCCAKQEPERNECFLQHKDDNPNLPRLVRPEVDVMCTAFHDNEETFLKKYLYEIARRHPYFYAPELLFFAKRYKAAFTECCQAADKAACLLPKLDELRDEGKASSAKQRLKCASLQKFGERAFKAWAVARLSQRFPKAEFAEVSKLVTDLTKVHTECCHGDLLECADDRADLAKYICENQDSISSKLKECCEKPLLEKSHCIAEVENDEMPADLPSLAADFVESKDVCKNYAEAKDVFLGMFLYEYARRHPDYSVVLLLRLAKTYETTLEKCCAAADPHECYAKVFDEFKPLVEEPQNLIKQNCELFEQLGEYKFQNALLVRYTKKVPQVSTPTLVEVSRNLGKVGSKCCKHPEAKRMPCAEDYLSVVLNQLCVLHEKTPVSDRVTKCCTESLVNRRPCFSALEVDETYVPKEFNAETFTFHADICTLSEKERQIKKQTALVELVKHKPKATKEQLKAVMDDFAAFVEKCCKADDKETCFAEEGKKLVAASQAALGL

Compound | Activity
CC(=O)N(C)C1CCN(Cc2cc3nc(-c4cccc5[nH]ccc45)nc(N4CCOCC4)c3s2)C1 (racemic) | 94.4%
COCC(=O)N(C)C1CCN(Cc2cc3nc(-c4cccc5[nH]ccc45)nc(N4CCOCC4)c3s2)C1 (racemic) | 94.1%
CN(C1CCCN(Cc2cc3nc(-c4cccc5[nH]ccc45)nc(N4CCOCC4)c3s2)C1)S(C)(=O)=O (racemic) | 95.6%

Test system: not listed separately
Experiment: Solubility of compound by CLND method
Assay type: physicochemical
Conditions: not given

Compound | solubility kinetic
CC(=O)N(C)C1CCN(Cc2cc3nc(-c4cccc5[nH]ccc45)nc(N4CCOCC4)c3s2)C1 (racemic) | 251 µM (≈ 123 µg/mL)
COCC(=O)N(C)C1CCN(Cc2cc3nc(-c4cccc5[nH]ccc45)nc(N4CCOCC4)c3s2)C1 (racemic) | 179 µM (≈ 93.2 µg/mL)

Test system: not listed separately
Experiment: Lipophilicity, logD of compound at pH 7.4 by HPLC-MS analysis
Conditions: buffer

Compound | logD
COCC(=O)N(C)C1CCCN(Cc2cc3nc(-c4cccc5[nH]ncc45)nc(N4CCOCC4)c3s2)C1 (racemic) | 4.3
CS(=O)(=O)NC1CCCN(Cc2cc3nc(-c4cnc(N)nc4)nc(N4CCOCC4)c3s2)C1 (racemic) | 3.1
CC(=O)N(C)C1CCCN(Cc2cc3nc(-c4cccc5[nH]ccc45)nc(N4CCOCC4)c3s2)C1 (racemic) | 5
CN(C1CCN(Cc2cc3nc(-c4cccc5[nH]ccc45)nc(N4CCOCC4)c3s2)C1)S(C)(=O)=O (racemic) | 5.1
CN(C1CCN(Cc2cc3nc(-c4cnc(N)nc4)nc(N4CCOCC4)c3s2)C1)S(C)(=O)=O (racemic) | 3.1
CN(C1CCN(Cc2cc3nc(-c4cccc5[nH]ncc45)nc(N4CCOCC4)c3s2)C1)S(C)(=O)=O (racemic) | 4.6
CC(=O)N(C)C1CCCN(Cc2cc3nc(-c4cccc5[nH]ncc45)nc(N4CCOCC4)c3s2)C1 (racemic) | 4.5
CNC(=O)N(C)C1CCCN(Cc2cc3nc(-c4cnc(N)nc4)nc(N4CCOCC4)c3s2)C1 (racemic) | 2.9
CC(=O)N(C)C1CCN(Cc2cc3nc(-c4cccc5[nH]ncc45)nc(N4CCOCC4)c3s2)C1 (racemic) | 3.6
CC(=O)N(C)C1CCN(Cc2cc3nc(-c4cccc5[nH]ccc45)nc(N4CCOCC4)c3s2)C1 (racemic) | 4.5
CN(C1CCCN(Cc2cc3nc(-c4cccc5[nH]ncc45)nc(N4CCOCC4)c3s2)C1)S(C)(=O)=O (racemic) | 4.9
CN(C1CCCN(Cc2cc3nc(-c4cccc5[nH]ccc45)nc(N4CCOCC4)c3s2)C1)S(C)(=O)=O (racemic) | 5.5

Biological target: Phosphatidylinositol 4,5-bisphosphate 3-kinase catalytic subunit alpha isoform (Homo sapiens, UniProt P42336)
Conditions: not given

Sequence of Phosphatidylinositol 4,5-bisphosphate 3-kinase catalytic subunit alpha isoform (P42336 whole entry, canonical isoform): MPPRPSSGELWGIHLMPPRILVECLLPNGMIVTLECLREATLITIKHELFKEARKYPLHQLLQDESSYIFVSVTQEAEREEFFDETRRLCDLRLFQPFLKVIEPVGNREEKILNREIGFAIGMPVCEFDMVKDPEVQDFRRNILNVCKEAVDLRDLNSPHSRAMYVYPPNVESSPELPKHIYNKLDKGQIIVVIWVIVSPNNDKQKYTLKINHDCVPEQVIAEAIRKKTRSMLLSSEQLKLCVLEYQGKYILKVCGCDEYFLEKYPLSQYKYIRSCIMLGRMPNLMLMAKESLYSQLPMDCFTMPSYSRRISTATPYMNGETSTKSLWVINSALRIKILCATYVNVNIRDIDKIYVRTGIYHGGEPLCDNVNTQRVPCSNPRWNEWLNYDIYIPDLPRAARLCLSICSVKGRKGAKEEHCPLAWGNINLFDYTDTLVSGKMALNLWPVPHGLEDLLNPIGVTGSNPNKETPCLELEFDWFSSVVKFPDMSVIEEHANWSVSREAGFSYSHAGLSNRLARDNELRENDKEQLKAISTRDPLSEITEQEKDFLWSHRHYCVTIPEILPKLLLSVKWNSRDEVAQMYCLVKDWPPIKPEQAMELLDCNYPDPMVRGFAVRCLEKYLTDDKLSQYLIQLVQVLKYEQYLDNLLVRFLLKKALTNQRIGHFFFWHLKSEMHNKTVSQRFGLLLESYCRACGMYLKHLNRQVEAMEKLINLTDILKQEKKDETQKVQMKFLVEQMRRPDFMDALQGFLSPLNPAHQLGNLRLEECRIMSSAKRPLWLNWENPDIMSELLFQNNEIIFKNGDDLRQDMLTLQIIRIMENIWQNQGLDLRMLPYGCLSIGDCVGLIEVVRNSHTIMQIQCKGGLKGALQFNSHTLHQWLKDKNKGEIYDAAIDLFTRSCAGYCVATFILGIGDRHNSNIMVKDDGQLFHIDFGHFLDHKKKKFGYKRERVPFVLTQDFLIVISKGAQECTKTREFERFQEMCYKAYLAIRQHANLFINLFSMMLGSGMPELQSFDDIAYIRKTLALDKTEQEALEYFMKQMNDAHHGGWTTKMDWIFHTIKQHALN

Compound | IC50
COCC(=O)N(C)C1CCCN(Cc2cc3nc(-c4cccc5[nH]ncc45)nc(N4CCOCC4)c3s2)C1 (racemic) | 794 nM
CS(=O)(=O)NC1CCCN(Cc2cc3nc(-c4cnc(N)nc4)nc(N4CCOCC4)c3s2)C1 (racemic) | 20 nM
CC(=O)N(C)C1CCCN(Cc2cc3nc(-c4cccc5[nH]ccc45)nc(N4CCOCC4)c3s2)C1 (racemic) | 1580 nM
CN(C1CCN(Cc2cc3nc(-c4cccc5[nH]ccc45)nc(N4CCOCC4)c3s2)C1)S(C)(=O)=O (racemic) | 631 nM
CN(C1CCN(Cc2cc3nc(-c4cnc(N)nc4)nc(N4CCOCC4)c3s2)C1)S(C)(=O)=O (racemic) | 7.94 nM
CN(C1CCN(Cc2cc3nc(-c4cccc5[nH]ncc45)nc(N4CCOCC4)c3s2)C1)S(C)(=O)=O (racemic) | 126 nM
CC(=O)N(C)C1CCCN(Cc2cc3nc(-c4cccc5[nH]ncc45)nc(N4CCOCC4)c3s2)C1 (racemic) | 251 nM
CNC(=O)N(C)C1CCCN(Cc2cc3nc(-c4cnc(N)nc4)nc(N4CCOCC4)c3s2)C1 (racemic) | 79.4 nM
CC(=O)N(C)C1CCN(Cc2cc3nc(-c4cccc5[nH]ncc45)nc(N4CCOCC4)c3s2)C1 (racemic) | 200 nM
CC(=O)N(C)C1CCN(Cc2cc3nc(-c4cccc5[nH]ccc45)nc(N4CCOCC4)c3s2)C1 (racemic) | 794 nM
CN(C1CCCN(Cc2cc3nc(-c4cccc5[nH]ncc45)nc(N4CCOCC4)c3s2)C1)S(C)(=O)=O (racemic) | 200 nM
COCC(=O)N(C)C1CCN(Cc2cc3nc(-c4cccc5[nH]ccc45)nc(N4CCOCC4)c3s2)C1 (racemic) | 3980 nM
CN(C1CCCN(Cc2cc3nc(-c4cccc5[nH]ccc45)nc(N4CCOCC4)c3s2)C1)S(C)(=O)=O (racemic) | 794 nM

Biological target: T1, Phosphatidylinositol 4,5-bisphosphate 3-kinase catalytic subunit delta isoform (Homo sapiens, UniProt O00329)
T1 sequence (O00329 whole entry): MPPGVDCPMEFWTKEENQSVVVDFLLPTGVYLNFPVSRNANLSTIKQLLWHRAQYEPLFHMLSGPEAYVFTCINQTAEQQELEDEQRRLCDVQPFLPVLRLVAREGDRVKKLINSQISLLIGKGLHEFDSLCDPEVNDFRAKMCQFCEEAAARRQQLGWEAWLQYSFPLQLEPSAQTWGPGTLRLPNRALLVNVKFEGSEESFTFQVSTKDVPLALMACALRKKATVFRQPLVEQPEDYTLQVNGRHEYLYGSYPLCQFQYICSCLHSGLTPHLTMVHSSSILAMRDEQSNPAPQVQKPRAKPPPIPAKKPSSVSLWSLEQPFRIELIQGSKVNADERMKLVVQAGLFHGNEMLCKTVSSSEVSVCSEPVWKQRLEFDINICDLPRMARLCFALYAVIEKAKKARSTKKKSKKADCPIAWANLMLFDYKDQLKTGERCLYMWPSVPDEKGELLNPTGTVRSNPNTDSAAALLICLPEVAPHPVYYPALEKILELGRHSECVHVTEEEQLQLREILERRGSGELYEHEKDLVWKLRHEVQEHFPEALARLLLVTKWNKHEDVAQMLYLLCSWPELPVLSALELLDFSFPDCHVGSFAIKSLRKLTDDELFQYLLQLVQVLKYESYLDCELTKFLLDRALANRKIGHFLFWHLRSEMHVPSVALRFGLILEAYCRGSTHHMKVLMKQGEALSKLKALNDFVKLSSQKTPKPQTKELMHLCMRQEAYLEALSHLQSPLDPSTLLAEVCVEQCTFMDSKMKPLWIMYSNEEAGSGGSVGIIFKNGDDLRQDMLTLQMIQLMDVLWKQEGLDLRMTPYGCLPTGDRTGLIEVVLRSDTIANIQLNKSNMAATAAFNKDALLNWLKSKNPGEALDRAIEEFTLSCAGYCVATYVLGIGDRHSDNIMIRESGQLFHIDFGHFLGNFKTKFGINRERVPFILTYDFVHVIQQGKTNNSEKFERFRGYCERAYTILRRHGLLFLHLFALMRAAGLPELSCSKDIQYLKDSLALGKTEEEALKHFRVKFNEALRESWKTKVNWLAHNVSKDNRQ
Conditions: not given

Compound | IC50
COCC(=O)N(C)C1CCCN(Cc2cc3nc(-c4cccc5[nH]ncc45)nc(N4CCOCC4)c3s2)C1 (racemic) | 126 nM
CS(=O)(=O)NC1CCCN(Cc2cc3nc(-c4cnc(N)nc4)nc(N4CCOCC4)c3s2)C1 (racemic) | 15.8 nM
CC(=O)N(C)C1CCCN(Cc2cc3nc(-c4cccc5[nH]ccc45)nc(N4CCOCC4)c3s2)C1 (racemic) | 25.1 nM
CN(C1CCN(Cc2cc3nc(-c4cccc5[nH]ccc45)nc(N4CCOCC4)c3s2)C1)S(C)(=O)=O (racemic) | 10 nM
CN(C1CCN(Cc2cc3nc(-c4cnc(N)nc4)nc(N4CCOCC4)c3s2)C1)S(C)(=O)=O (racemic) | 6.31 nM
CN(C1CCN(Cc2cc3nc(-c4cccc5[nH]ncc45)nc(N4CCOCC4)c3s2)C1)S(C)(=O)=O (racemic) | 25.1 nM
CC(=O)N(C)C1CCCN(Cc2cc3nc(-c4cccc5[nH]ncc45)nc(N4CCOCC4)c3s2)C1 (racemic) | 39.8 nM
CNC(=O)N(C)C1CCCN(Cc2cc3nc(-c4cnc(N)nc4)nc(N4CCOCC4)c3s2)C1 (racemic) | 79.4 nM
CC(=O)N(C)C1CCN(Cc2cc3nc(-c4cccc5[nH]ncc45)nc(N4CCOCC4)c3s2)C1 (racemic) | 20 nM
CC(=O)N(C)C1CCN(Cc2cc3nc(-c4cccc5[nH]ccc45)nc(N4CCOCC4)c3s2)C1 (racemic) | 6.31 nM
CN(C1CCCN(Cc2cc3nc(-c4cccc5[nH]ncc45)nc(N4CCOCC4)c3s2)C1)S(C)(=O)=O (racemic) | 20 nM
COCC(=O)N(C)C1CCN(Cc2cc3nc(-c4cccc5[nH]ccc45)nc(N4CCOCC4)c3s2)C1 (racemic) | 10 nM
CN(C1CCCN(Cc2cc3nc(-c4cccc5[nH]ccc45)nc(N4CCOCC4)c3s2)C1)S(C)(=O)=O (racemic) | 6.31 nM

Biological target: Phosphatidylinositol 4,5-bisphosphate 3-kinase catalytic subunit gamma isoform (Homo sapiens, UniProt P48736)
Conditions: not given

Sequence of Phosphatidylinositol 4,5-bisphosphate 3-kinase catalytic subunit gamma isoform (P48736 whole entry, canonical isoform): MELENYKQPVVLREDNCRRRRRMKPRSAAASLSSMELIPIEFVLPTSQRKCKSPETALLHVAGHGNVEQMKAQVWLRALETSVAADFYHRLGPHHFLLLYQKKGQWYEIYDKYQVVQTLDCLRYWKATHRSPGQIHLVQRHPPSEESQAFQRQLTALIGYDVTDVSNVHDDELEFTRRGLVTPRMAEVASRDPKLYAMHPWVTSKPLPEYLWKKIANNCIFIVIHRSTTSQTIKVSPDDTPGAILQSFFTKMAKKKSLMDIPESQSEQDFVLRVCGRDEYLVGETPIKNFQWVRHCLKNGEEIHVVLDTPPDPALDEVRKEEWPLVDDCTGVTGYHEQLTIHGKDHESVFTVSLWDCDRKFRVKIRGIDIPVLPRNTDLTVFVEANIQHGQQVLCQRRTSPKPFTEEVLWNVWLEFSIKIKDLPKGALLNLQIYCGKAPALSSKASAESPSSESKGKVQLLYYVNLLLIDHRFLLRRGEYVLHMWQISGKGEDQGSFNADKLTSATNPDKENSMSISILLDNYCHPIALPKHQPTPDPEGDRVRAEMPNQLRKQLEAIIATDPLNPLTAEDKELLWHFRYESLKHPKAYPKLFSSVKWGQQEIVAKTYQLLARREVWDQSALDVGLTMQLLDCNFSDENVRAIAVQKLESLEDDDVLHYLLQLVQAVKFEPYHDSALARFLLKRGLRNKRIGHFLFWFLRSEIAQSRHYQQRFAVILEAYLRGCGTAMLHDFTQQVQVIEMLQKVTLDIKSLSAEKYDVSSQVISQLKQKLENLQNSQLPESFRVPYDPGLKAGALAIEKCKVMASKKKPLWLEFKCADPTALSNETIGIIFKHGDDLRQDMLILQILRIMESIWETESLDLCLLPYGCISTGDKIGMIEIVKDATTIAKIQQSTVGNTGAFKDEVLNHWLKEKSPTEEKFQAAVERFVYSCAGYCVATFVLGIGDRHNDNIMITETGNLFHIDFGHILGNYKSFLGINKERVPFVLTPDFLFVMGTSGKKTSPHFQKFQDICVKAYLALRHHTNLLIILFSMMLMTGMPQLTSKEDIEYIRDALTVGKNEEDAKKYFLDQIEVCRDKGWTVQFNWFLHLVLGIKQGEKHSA

Compound | IC50
COCC(=O)N(C)C1CCCN(Cc2cc3nc(-c4cccc5[nH]ncc45)nc(N4CCOCC4)c3s2)C1 (racemic) | 3160 nM
CS(=O)(=O)NC1CCCN(Cc2cc3nc(-c4cnc(N)nc4)nc(N4CCOCC4)c3s2)C1 (racemic) | 39.8 nM
CC(=O)N(C)C1CCCN(Cc2cc3nc(-c4cccc5[nH]ccc45)nc(N4CCOCC4)c3s2)C1 (racemic) | 2510 nM
CN(C1CCN(Cc2cc3nc(-c4cccc5[nH]ccc45)nc(N4CCOCC4)c3s2)C1)S(C)(=O)=O (racemic) | 501 nM
CN(C1CCN(Cc2cc3nc(-c4cnc(N)nc4)nc(N4CCOCC4)c3s2)C1)S(C)(=O)=O (racemic) | 12.6 nM
CN(C1CCN(Cc2cc3nc(-c4cccc5[nH]ncc45)nc(N4CCOCC4)c3s2)C1)S(C)(=O)=O (racemic) | 398 nM
CC(=O)N(C)C1CCCN(Cc2cc3nc(-c4cccc5[nH]ncc45)nc(N4CCOCC4)c3s2)C1 (racemic) | 501 nM
CNC(=O)N(C)C1CCCN(Cc2cc3nc(-c4cnc(N)nc4)nc(N4CCOCC4)c3s2)C1 (racemic) | 200 nM
CC(=O)N(C)C1CCN(Cc2cc3nc(-c4cccc5[nH]ncc45)nc(N4CCOCC4)c3s2)C1 (racemic) | 1000 nM
CC(=O)N(C)C1CCN(Cc2cc3nc(-c4cccc5[nH]ccc45)nc(N4CCOCC4)c3s2)C1 (racemic) | 631 nM
CN(C1CCCN(Cc2cc3nc(-c4cccc5[nH]ncc45)nc(N4CCOCC4)c3s2)C1)S(C)(=O)=O (racemic) | 794 nM
COCC(=O)N(C)C1CCN(Cc2cc3nc(-c4cccc5[nH]ccc45)nc(N4CCOCC4)c3s2)C1 (racemic) | 1000 nM
CN(C1CCCN(Cc2cc3nc(-c4cccc5[nH]ccc45)nc(N4CCOCC4)c3s2)C1)S(C)(=O)=O (racemic) | 501 nM
